Results as given in the NIST ThermoML archive (doi:10.1021/je5000617).

Details: for mass density / speed of sound / viscosity: 101.33 kPa, Liquid; for viscosity: Concentric cylinders viscometry

CCCCn1cc[n+](C)c1.F[P-](F)(F)(F)(F)F [1-butyl-3-methylimidazolium hexafluorophosphate]
Details	mass density [kg/m3]	speed of sound [m/s]	surface tension liquid-gas [mN/m]	viscosity [mPa·s]
303 K	1359.4	1433	45.3	190
308 K	1358.2	1417	45	150
313 K	1353.2	1408	44.7	132
318 K	1349.8	1395	44.4	106
323 K	1346.8	1384	44.1	90
328 K	1343.8	1374	43.8	75
333 K	1340.6	1363	43.5	58

CCCCCCCCOS(=O)(=O)[O-].CCCCn1cc[n+](C)c1 [1-butyl-3-methylimidazolium octyl sulfate]
Details	mass density [kg/m3]	speed of sound [m/s]	surface tension liquid-gas [mN/m]
303 K	1060.2	1461	35.7
308 K	1057.8	1450	35.2
313 K	1053.2	1430	34.9
318 K	1050.8	1419	34.7
323 K	1046.4	1406	34.3
328 K	1042.2	1391	33.9
333 K	1039.8	1380	–

CCn1cc[n+](C)c1.CS(=O)(=O)[O-] [1-ethyl-3-methylimidazolium methanesulfonate]
Details	mass density [kg/m3]	speed of sound [m/s]	surface tension liquid-gas [mN/m]	viscosity [mPa·s]
303 K	1247	1796	47.8	120
308 K	1243.2	1778	47.4	87
313 K	1240.2	1764	47	63
318 K	1237.6	1752	46.7	48
323 K	1234.4	1738	46.1	37
328 K	1232.4	1727	45.7	29
333 K	1230.2	1708	45.4	20
